Laboratory results: US10844077B2, “Thiazolyl-containing compounds for treating proliferative diseases” (Dana-Farber Cancer Institute, Inc., priority 2014, dated 2020)
Where “and” joins values, the source holds several entries; their conditions need not be identical. Equal values may be shown once.

Experiments:
Assay in all cases: KINATIV assay
Type in all cases: cell-based
Details in all cases: 1 μM, 90 minutes, BCWM.1 cells
CaMK1d = CaMK1d (Homo sapiens (Human), UniProt Q8IU85)
Summary of the method: (§1)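 ATP-biotin probe labeling of whole-cell lysates, followed by ACTIVX identification/quantitation of bound kinases; compounds in duplicate.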

FYN, SRC, YES = test system: FYN, SRC, YES
Summary of the method: as §1

LATS2 = LATS2 (Homo sapiens (Human), UniProt Q9NRM7)
Summary of the method: as §1

RSK1 domain2 = RSK1 domain2 (Homo sapiens (Human), UniProt Q15418)
Summary of the method: as §1

NEK7 = NEK7 (Homo sapiens (Human), UniProt Q8TDX7)
Summary of the method: as §1

[1] = test system: ZC1/HGK, ZC2/TNIK, ZC3/MINK
Summary of the method: as §1

RSK3 domain1 = RSK3 domain1 (Homo sapiens (Human), UniProt Q15349)
Summary of the method: as §1

TEC = TEC (Homo sapiens (Human), UniProt P42680)
Chain of TEC (P42680 whole entry): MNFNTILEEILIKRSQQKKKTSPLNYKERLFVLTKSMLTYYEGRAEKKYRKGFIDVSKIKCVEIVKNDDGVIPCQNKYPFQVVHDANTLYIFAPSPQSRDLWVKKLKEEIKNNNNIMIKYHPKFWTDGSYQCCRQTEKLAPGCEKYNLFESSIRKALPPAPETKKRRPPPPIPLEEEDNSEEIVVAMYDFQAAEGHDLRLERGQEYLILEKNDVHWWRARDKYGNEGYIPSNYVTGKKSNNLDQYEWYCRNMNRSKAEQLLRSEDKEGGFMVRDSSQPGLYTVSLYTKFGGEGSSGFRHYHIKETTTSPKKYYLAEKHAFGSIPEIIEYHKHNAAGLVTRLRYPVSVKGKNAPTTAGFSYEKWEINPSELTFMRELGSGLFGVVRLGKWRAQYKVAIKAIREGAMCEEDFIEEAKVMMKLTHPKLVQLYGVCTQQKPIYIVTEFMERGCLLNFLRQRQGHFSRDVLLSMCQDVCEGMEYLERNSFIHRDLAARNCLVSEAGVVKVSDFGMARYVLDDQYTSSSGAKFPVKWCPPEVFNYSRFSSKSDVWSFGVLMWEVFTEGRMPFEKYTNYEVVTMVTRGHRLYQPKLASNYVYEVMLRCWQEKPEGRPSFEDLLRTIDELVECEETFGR
Summary of the method: as §1

TYK2 domain2 = TYK2 domain2 (Homo sapiens (Human), UniProt P29597)
Summary of the method: as §1

LYN = LYN (Homo sapiens (Human), UniProt P07948)
Chain of LYN (P07948 whole entry): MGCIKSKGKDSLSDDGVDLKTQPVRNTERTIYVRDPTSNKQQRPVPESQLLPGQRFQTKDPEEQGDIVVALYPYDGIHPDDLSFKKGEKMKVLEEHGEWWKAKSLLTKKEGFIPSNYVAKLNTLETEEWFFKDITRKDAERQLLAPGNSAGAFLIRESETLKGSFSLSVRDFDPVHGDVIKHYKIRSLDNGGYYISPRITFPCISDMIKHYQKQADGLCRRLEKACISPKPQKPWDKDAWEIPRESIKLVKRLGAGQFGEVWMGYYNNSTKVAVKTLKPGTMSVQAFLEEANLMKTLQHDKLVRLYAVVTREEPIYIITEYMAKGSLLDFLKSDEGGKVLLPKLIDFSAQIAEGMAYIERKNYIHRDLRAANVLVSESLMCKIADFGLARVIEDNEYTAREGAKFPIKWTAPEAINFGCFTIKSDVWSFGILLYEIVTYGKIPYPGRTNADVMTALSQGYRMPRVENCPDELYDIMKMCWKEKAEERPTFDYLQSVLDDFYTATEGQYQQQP
Summary of the method: as §1

MAP3K5 = MAP3K5 (Homo sapiens (Human), UniProt Q99683)
Summary of the method: as §1

ABL, ARG = test system: ABL, ARG
Summary of the method: as §1

FRK = FRK (Homo sapiens (Human), UniProt P42685)
Summary of the method: as §1

MST2 = MST2 (Homo sapiens (Human), UniProt Q13188)
Chain of MST2 (Q13188 whole entry): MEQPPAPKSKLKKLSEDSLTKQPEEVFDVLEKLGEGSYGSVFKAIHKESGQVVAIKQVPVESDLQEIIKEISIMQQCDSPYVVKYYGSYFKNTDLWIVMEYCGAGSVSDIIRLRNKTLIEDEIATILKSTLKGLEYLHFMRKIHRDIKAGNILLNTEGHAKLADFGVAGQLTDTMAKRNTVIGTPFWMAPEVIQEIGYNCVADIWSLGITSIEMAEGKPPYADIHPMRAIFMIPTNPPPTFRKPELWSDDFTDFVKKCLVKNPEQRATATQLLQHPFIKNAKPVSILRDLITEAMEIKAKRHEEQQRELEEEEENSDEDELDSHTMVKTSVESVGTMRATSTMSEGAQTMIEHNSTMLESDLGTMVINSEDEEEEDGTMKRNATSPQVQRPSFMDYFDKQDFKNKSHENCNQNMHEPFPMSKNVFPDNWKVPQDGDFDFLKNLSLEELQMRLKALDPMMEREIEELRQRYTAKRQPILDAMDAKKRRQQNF
Summary of the method: as §1

IKKa = IKKa (Homo sapiens (Human), UniProt O15111)
Summary of the method: as §1

NEK8 = NEK8 (Homo sapiens (Human), UniProt Q86SG6)
Summary of the method: as §1

MST4, YSK1 = test system: MST4, YSK1
Summary of the method: as §1

MAP3K2, MAP3K3 = test system: MAP3K2, MAP3K3
Summary of the method: as §1

CK1g2 = CK1g2 (Homo sapiens (Human), UniProt P78368)
Chain of CK1g2 (P78368 whole entry): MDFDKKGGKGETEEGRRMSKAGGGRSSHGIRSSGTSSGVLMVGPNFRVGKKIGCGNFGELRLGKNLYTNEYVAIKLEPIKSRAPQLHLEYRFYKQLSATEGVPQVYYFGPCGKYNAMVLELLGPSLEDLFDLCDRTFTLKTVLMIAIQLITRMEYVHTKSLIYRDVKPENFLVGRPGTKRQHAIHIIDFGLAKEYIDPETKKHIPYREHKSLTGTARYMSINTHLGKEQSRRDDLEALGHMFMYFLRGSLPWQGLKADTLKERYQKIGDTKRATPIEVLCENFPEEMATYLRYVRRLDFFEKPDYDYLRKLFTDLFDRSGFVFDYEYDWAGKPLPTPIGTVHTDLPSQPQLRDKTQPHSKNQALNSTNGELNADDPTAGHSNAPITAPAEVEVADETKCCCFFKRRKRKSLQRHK
Summary of the method: as §1

OSR1 = OSR1 (Homo sapiens (Human), UniProt O95747)
Summary of the method: as §1

MSK1 domain1 = MSK1 domain1 (Homo sapiens (Human), UniProt O75582)
Summary of the method: as §1

PHKg2 = PHKg2 (Homo sapiens (Human), UniProt P15735)
Summary of the method: as §1

Wnk1, Wnk2, Wnk4 = test system: Wnk1, Wnk2, Wnk4
Summary of the method: as §1

LCK = LCK (Homo sapiens (Human), UniProt P06239)
Summary of the method: as §1

PIK3CG = PIK3CG (Homo sapiens (Human), UniProt P48736)
Summary of the method: as §1

MELK = MELK (Homo sapiens (Human), UniProt Q14680)
Summary of the method: as §1

LRRK2 = LRRK2 (Homo sapiens (Human), UniProt Q5S007)
Summary of the method: as §1

GCN2 = GCN2 (Homo sapiens (Human), UniProt Q9P2K8)
Chain of GCN2 (Q9P2K8 whole entry): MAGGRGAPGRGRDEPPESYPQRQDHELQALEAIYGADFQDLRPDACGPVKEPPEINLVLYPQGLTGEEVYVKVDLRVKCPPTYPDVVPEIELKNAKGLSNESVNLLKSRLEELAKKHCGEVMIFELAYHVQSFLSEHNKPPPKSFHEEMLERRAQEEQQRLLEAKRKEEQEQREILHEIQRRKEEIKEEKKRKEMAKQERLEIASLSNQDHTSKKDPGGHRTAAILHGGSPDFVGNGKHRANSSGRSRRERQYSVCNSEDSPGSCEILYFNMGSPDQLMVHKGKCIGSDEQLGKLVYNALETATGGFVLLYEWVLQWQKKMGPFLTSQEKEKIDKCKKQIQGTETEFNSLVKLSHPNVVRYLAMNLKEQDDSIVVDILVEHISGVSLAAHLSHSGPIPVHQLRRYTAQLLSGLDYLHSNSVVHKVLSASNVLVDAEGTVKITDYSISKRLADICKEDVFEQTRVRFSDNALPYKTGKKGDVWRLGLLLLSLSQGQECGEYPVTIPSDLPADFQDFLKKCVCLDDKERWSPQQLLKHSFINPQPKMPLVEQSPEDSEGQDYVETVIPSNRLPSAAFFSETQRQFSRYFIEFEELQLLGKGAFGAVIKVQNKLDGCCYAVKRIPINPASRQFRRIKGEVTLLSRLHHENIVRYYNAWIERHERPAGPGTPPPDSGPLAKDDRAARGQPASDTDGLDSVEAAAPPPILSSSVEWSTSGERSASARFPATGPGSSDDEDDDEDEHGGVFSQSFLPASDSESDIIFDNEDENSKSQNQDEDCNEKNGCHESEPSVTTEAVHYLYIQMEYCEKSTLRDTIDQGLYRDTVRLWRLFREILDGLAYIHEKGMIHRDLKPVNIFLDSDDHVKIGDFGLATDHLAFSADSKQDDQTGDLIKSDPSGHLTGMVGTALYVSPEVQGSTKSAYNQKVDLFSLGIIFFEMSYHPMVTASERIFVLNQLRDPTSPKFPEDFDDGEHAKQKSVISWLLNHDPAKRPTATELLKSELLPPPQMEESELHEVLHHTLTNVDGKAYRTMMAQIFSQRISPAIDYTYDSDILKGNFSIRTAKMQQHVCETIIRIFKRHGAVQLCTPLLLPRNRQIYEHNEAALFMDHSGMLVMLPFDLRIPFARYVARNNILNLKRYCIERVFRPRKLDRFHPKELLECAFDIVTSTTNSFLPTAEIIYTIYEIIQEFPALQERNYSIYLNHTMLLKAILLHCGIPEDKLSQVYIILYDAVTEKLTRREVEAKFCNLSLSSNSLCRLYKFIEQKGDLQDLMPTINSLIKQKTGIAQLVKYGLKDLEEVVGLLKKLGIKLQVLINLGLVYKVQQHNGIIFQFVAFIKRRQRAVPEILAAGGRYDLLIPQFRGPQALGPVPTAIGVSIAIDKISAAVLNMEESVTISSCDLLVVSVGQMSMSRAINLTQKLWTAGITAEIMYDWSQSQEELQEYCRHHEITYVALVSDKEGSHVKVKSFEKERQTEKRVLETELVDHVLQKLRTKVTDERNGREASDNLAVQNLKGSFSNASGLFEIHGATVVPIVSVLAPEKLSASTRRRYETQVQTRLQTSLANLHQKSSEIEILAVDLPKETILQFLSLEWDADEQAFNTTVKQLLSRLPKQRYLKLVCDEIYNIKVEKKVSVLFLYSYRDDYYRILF
Summary of the method: as §1

Wnk1, Wnk2 = test system: Wnk1, Wnk2
Summary of the method: as §1

IKKe, TBK1 = test system: IKKe, TBK1
Summary of the method: as §1

MASTL = MASTL (Homo sapiens (Human), UniProt Q96GX5)
Chain of MASTL (Q96GX5 whole entry): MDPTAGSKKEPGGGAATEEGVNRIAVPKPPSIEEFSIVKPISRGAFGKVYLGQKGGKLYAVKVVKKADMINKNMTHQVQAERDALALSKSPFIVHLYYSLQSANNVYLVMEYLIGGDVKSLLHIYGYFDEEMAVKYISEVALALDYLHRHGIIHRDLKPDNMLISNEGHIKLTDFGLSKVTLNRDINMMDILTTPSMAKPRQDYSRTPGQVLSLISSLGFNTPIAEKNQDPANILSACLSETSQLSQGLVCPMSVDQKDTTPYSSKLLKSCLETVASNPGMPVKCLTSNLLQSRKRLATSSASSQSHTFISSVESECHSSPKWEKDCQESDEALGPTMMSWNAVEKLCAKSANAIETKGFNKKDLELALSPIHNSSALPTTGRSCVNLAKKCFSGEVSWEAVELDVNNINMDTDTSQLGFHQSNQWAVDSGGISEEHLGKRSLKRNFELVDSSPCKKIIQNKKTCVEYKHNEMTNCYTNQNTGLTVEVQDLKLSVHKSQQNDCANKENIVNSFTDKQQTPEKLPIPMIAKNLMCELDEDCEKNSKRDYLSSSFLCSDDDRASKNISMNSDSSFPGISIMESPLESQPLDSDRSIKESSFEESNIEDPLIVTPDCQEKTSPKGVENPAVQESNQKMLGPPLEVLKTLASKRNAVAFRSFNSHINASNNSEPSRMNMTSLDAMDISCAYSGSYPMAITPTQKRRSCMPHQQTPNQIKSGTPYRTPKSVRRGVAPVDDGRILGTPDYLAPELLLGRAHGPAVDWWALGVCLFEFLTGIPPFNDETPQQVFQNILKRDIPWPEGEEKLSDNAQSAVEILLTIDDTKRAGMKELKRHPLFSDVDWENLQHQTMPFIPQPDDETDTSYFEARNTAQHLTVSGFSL
Summary of the method: as §1

MAP3K4 = MAP3K4 (Homo sapiens (Human), UniProt Q9Y6R4)
Summary of the method: as §1

IRAK1 = IRAK1 (Homo sapiens (Human), UniProt P51617)
Summary of the method: as §1

YSK1 = YSK1 (Homo sapiens (Human), UniProt O00506)
Summary of the method: as §1

PIK3C2B = PIK3C2B (Homo sapiens (Human), UniProt O00750)
Summary of the method: as §1

STLK6 = STLK6 (Homo sapiens (Human), UniProt Q9C0K7)
Summary of the method: as §1

PI4KA, PI4KAP2 = test system: PI4KA, PI4KAP2
Summary of the method: as §1

AurA, AurB, AurC = test system: AurA, AurB, AurC
Summary of the method: as §1

RSK3 = RSK3 (Homo sapiens (Human), UniProt Q15349)
Summary of the method: as §1

MARK1, MARK2 = test system: MARK1, MARK2
Summary of the method: as §1

MST4 = MST4 (Homo sapiens (Human), UniProt Q9P289)
Summary of the method: as §1

Chain of CaMK1d (Q8IU85 whole entry): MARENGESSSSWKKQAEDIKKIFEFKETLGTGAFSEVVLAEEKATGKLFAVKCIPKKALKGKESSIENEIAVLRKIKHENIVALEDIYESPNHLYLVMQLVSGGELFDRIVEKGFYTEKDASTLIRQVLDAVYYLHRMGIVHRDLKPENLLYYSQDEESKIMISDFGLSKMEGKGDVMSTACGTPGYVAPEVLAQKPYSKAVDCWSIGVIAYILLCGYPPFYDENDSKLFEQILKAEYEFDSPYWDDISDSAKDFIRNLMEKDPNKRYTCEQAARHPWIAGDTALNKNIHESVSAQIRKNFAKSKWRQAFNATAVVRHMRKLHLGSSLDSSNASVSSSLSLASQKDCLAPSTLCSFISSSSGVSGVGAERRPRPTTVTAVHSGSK

C=CC(=O)N1CCC(Cn2ccc(Nc3ncc(C(=O)Nc4c(C)cccc4Cl)s3)n2)C1 (centres unmarked) [II-1]
% change of MS signal compared to control sample (CaMK1d): −7.9% and −2.8% | % change of MS signal compared to control sample (FYN, SRC, YES): 88.1% | % change of MS signal compared to control sample (LATS2): −2.9% | % change of MS signal compared to control sample (RSK1 domain2): 14.0% | % change of MS signal compared to control sample (NEK7): −8.5% | % change of MS signal compared to control sample [1]: 4.2% | % change of MS signal compared to control sample (RSK3 domain1): −58.4% | % change of MS signal compared to control sample (TEC): 91.5% and 80.8% | % change of MS signal compared to control sample (TYK2 domain2): −19.0% | % change of MS signal compared to control sample (LYN): 88.1% and >90% | % change of MS signal compared to control sample (MAP3K5): −22.9% | % change of MS signal compared to control sample (ABL, ARG): 76.1% and 39.5% | % change of MS signal compared to control sample (FRK): 84.0% | % change of MS signal compared to control sample (MST2): 14.7% | % change of MS signal compared to control sample (IKKa): −2.1% | % change of MS signal compared to control sample (NEK8): 6.5% | % change of MS signal compared to control sample (MST4, YSK1): 9.2% | % change of MS signal compared to control sample (MAP3K2, MAP3K3): 17.1% | % change of MS signal compared to control sample (CK1g2): −1.1% | % change of MS signal compared to control sample (OSR1): 16.4% | % change of MS signal compared to control sample (MSK1 domain1): −35.0% | % change of MS signal compared to control sample (PHKg2): −9.1% | % change of MS signal compared to control sample (Wnk1, Wnk2, Wnk4): −8.1% | % change of MS signal compared to control sample (LCK): 92.4% | % change of MS signal compared to control sample (PIK3CG): −45.9% | % change of MS signal compared to control sample (MELK): 4.2% | % change of MS signal compared to control sample (LRRK2): −20.9% | % change of MS signal compared to control sample (GCN2): −6.2% and −4.1% | % change of MS signal compared to control sample (Wnk1, Wnk2): −3.8% | % change of MS signal compared to control sample (IKKe, TBK1): −27.2% | % change of MS signal compared to control sample (MASTL): −16.7% and −8.2% | % change of MS signal compared to control sample (MAP3K4): −23.9% | % change of MS signal compared to control sample (IRAK1): 26.3% | % change of MS signal compared to control sample (YSK1): −27.4% | % change of MS signal compared to control sample (PIK3C2B): −5.8% | % change of MS signal compared to control sample (STLK6): −0.8% | % change of MS signal compared to control sample (PI4KA, PI4KAP2): −45.7% | % change of MS signal compared to control sample (AurA, AurB, AurC): −3.6% | % change of MS signal compared to control sample (RSK3): 22.3% | % change of MS signal compared to control sample (MARK1, MARK2): 20.9% | % change of MS signal compared to control sample (MST4): 21.1%
